Target: T1, human KCa2.3 channels (Homo sapiens, UniProt P0DP23+Q9UGI6)
T1 construct: expressed in transfected cells; host or cells: HEK293
Assay: Inside-out patch-clamp potentiation of KCa2.3 channels expressed in HEK293 cells
Assay type: cell-based
Conditions: for EC50: inside-out patch, HEK293, 0.15 μM Ca2+, read-out: EC50 on potentiating KCa2.3 channels
From the text: The effects of the two newly synthesized compounds on human KCa2.3 channels (FIG. 7A) were examined.
The effect of newly synthesized compounds on the KCa2.x/KCa3.1 channels was investigated as previously described (Nam, Y. W.; et al, Acta Physiol (Oxf) 2020, e13552; Nam, Y. W.; et al. Scientific reports 2018, 8 (1), 10749). Briefly, the rat KCa2.2a, human KCa2.1, human KCa2.3 or human KCa3.1 channels cDNA constructs were either generated in-house or through molecular cloning services (Genscript). The channel cDNAs, along with CaM and GFP, at a ratio of 7:4:2 (ORF ratios), were transfected into HEK293 cells by the calcium-phosphate method. KCa currents were recorded 1-2 days after transfection, with an Axon200B amplifier (Molecular Devices) at room temperature. The resistance of the patch electrodes ranged from 3-5 MΩ. The pipette solution contained (in mM): 140 KCl, 10 Hepes (pH 7.4), 1 MgSO4. The bath solution containing (in mM): 140 KCl, 10 Hepes (pH 7.2), 1 EGTA, 0.1 Dibromo-BAPTA, and 1 HEDTA was mixed with Ca^2+ to obtain the desired free Ca^2+ concentrations, calculated using the software by Chris Patton of Stanford University (https://somapp.ucdmc.ucdavis.edu/pharmacology/bers/maxchelator/webmaxc/webmaxcS.htm). […] Briefly, a standard curve was generated using the Ca^2+ buffers from the kit and a fluorescence Ca^2+ indicator. Then, the Ca^2+ concentrations of the bath solution were determined through interpolation on the standard curve.
High resistance seals (>1 GΩ) were formed before inside-out patches were obtained. […] Currents were recorded by repetitive 1-s-voltage ramps from −100 mV to +100 mV from a holding potential of 0 mV. […]
To measure the effect of CyPPA (Alomone Labs) and newly synthesized compounds, the intracellular face was exposed to bath solutions with 0.15 μM Ca^2+. One minute after switching of bath solutions, ten sweeps with a 1-s interval were recorded at a series of concentrations of compound in the presence of 0.15 μM Ca^2+. The maximal KCa2.x/KCa3.1 current in response to 10 μM Ca^2+ was then recorded. […]

Structure (SMILES) | potency on KCa2.3 compared to KCa2.2a channels | EC50 [nM]
Cc1cc(Nc2ccc(F)c(Cl)c2)nc(-n2nc(C)cc2C)n1 [Compound 2o, N-(3-Chloro-4-fluorophenyl)-2-(3,5-dimethyl-1H-pyrazol-1-yl)-6-methyl-pyrimidin-4-amine] | significantly smaller | 190 ± 23
Cc1cc(Nc2cc(Cl)ccc2F)nc(-n2nc(C)cc2C)n1 [Compound 2q, N-(5-Chloro-2-fluorophenyl)-2-(3,5-dimethyl-1H-pyrazol-1-yl)-6-methylpyrimidin-4-amine] | – | 600 ± 35
